# Measurements reported in PMC6152226, “Composition and Antioxidant, Antienzymatic and Antimicrobial Activities of Volatile Molecules from Spanish Salvia lavandulifolia (Vahl) Essential Oils” (Molecules : A Journal of Synthetic Chemistry and Natural …, 2017).
# Counter-ions that a name gives are not always drawn. Like-named read-outs stand apart in the source and are kept apart here.
# Experiments:
# [1] = test system: Escherichia coli ATCC 8739; assay: Broth microdilution MIC and MBC; assay type: cell-based
# Protocol: (§1) The following test microorganisms used in this work were acquired from Sigma-Aldrich: Pseudomonas aeruginosa ATCC 9027, Escherichia coli ATCC 8739, Staphylococcus aureus ATCC 6538, and Candida albicans ATCC 10231. The stock cultures were preserved in TSB or YPD with 15% glycerol, for bacteria and yeast cells, respectively, at −80 °C. Isolated colonies from an 18- to 24-h agar plate were transferred to MHB for bacteria and RPMI-1640 for C. albicans.
# (§2) MIC were determined using the broth microdilution method in 96-well microplates, according to the M07-A10 [69] standard for bacteria and the M27-A3 [70] for Candida. Briefly, two-fold dilutions of a 40 µL/mL SlEOs were prepared to obtain a final concentration range of 0.08–20 µL/mL with 0.5% Tween®80 and 2.5% DMSO. The antimicrobial activities of main compounds were also tested in the concentration range of 0.12–15 mM with 0.5% Tween®80 and 2.5% DMSO as solvent. The final strain concentration was 5 × 10^5 CFU/mL in MHB for the bacteria and 0.5−2.5 × 10^3 in RPMI-1640 for the yeast. These plates were incubated for 24 h for bacteria and 48 h for Candida, both at 35 ± 1 °C, under aerobic conditions on a plate shaker at 100 rpm. Streptomycin (0.06–8.00 µg/mL) and fluconazole (0.13–16 µg/mL) were used as reference antibacterial and antifungal compound, respectively. […] MIC is defined as the lowest concentration of EO or individual compound with no visible growth of microorganisms, at the end of the incubation period. […] All determinations were carried out in triplicate.
# [2] = test system: Staphylococcus aureus ATCC 6538; assay: Broth microdilution MIC and MBC; assay type: cell-based
# Protocol: as §1, §2
# [3] = Oxygen radical absorbance capacity (ORAC) assay; settings: individual compounds, maximum assay concentration 100 mM
# Protocol: (§3) Five antioxidant methods were performed with SlEOs and their main individual compounds in triplicate. In the oxygen radical absorbance capacity (ORAC) assay, peroxyl radicals are produced by 2,2′-Azobis(2-methylpropionamidine) dihydrochloride (AAPH), which reacts with fluorescein giving a non-fluorescent compound [61]. The antioxidants are able to scavenge these peroxyl radicals. Trolox was used as the reference antioxidant. The 2,2-diphenyl-1-picrylhydrazyl (DPPH) and 2,2′-azino-bis(3-ethylbenzothiazoline-6-sulphonic acid) (ABTS) methods measure the bleaching produced by the reduction of the coloured DPPH and ABTS radicals. Trolox was used as the reference antioxidant. The RdP method measure the ability to reduce ferric ions, according to the method of Oyaizu. Ascorbic acid was the reference antioxidant used in this method. The ChP method measured the ability to chelate Fe^2+ ion, following the method of Miguel et al.. EDTA was used as reference antioxidant. The SlEOs were diluted in 100% ethanol in the DPPH, ABTS, RdP and ChP methods, whereas in the ORAC method, SlEOs were diluted in 15% ethanol to obtain a final concentration of 5% ethanol in the reaction medium. All measurements were made at the end-point of the reaction, except in the ORAC method (Figure S5).
# [4] = Reducing power (RdP) method; settings: individual compounds; maximum assay concentration 100 mM
# Protocol: as §3
# ABTS radical method = settings: individual compounds; maximum assay concentration 100 mM
# Protocol: as §3
# [5] = test system: Candida albicans ATCC 10231; assay: Broth microdilution MIC and MFC; assay type: cell-based
# Protocol: as §1, §2
# [6] = Chelating power (ChP) method; settings: individual compounds; maximum assay concentration 100 mM
# Protocol: as §3
# DPPH radical method = settings: individual compounds; maximum assay concentration 100 mM
# Protocol: as §3
# LOX = biological target: T1, LOX (Glycine max, UniProt P08170); assay: LOX inhibition assay; assay type: biochemical, Glycine max (soybean)
# T1 construct: purchased Sigma-Aldrich
# Protocol: A LOX preparation from Glycine max (soybean) was acquired from Sigma-Aldrich. LOX inhibitory activity was determined as previously reported, based on the absorption at 234 nm of the hydroperoxyde conjugated dienes (ε = 25,000 M^−1 cm^−1), which are generated from the oxidation of linoleic acid in the presence of oxygen and LOX. This assay was carried out on a double beam Lambda 35 spectrophotometer (PerkinElmer, Madrid, Spain) with the UV-Winlab software, at 25 °C.
# The DI in both antienzymatic assays were calculated using Equation (1):(1) DI (%)= ν0−νi/ν0 × 100 where v0 and v1 are the steady state rates without and with inhibitor, respectively. The inhibitions of LOX were reported as DI at 150 µg/mL of each SlEO. […] To calculate the IC50 values, data of DI (%) of seven different concentrations of each SlEO were plotted and fitted by non-linear regression according to Equation (2) using Sigma Plot software (systatsoftware.com) (Figure S6). The inhibitions of LOX and AChE by individual compounds were reported as IC50 or DI, depending on their inhibition capacities and solubilities.
# (2) DI (%)= DImax [I]0/IC50+ [I]0
# T1 sequence (P08170 whole entry): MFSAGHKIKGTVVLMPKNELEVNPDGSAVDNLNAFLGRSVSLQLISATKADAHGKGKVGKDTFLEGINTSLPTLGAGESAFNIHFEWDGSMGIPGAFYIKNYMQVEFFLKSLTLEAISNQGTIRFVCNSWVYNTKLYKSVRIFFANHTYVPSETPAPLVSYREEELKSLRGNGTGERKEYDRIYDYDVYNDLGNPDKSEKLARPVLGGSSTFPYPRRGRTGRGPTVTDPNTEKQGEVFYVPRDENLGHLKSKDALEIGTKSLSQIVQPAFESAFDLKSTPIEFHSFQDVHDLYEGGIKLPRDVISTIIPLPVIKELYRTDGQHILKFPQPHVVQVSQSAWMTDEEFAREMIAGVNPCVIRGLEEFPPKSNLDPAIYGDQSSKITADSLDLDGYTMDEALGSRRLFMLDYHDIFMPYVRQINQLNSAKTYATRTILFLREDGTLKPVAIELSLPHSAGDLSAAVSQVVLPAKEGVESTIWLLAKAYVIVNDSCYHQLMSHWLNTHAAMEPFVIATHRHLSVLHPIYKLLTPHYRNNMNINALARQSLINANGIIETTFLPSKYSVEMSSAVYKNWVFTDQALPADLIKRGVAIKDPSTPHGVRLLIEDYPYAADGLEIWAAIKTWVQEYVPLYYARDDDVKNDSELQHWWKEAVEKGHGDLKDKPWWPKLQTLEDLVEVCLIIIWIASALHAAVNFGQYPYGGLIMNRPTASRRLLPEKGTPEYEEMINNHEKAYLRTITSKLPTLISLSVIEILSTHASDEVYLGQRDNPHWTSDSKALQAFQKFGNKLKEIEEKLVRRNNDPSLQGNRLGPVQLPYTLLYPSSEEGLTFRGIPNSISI
SMILES,"MIC ([1]; ATCC8739, 24 h, read-out: MIC)","MBC ([1]; ATCC8739, read-out: MBC)","MIC ([2]; ATCC6538, 24 h, read-out: MIC)","MBC ([2]; ATCC6538, read-out: MBC)",ORAC [3],RdP [4],ABTS (ABTS radical method),"MIC ([5]; ATCC10231, 48 h, read-out: MIC)","MFC ([5]; ATCC10231, read-out: MFC)",ChP [6],DPPH (DPPH radical method),also measured
Cc1ccc(C(C)C)cc1 [p-Cymene],1000 µg/mL,2000 µg/mL,> 2000 µg/mL,> 2000 µg/mL,N/D (Activity lower than 0.05 units at a maximum assay concentration of 100 mM),N/D (Activity lower than 0.05 units at a maximum assay concentration of 100 mM),0.1 ± 0.0 µmol TE/mmol X,500 µg/mL,500 µg/mL,20.1 ± 1.6 µmol EDTAE/mmol X,N/D (Activity lower than 0.05 units at a maximum assay concentration of 100 mM),–
CC(C)C12CCC(C)(O)C1C2 (stereo not shown) [Sabinene hydrate],–,–,–,–,N/D (Activity lower than 0.05 units at a maximum assay concentration of 100 mM),N/D (Activity lower than 0.05 units at a maximum assay concentration of 100 mM),0.5 ± 0.0 µmol TE/mmol X,–,–,6.7 ± 0.6 µmol EDTAE/mmol X,N/D (Activity lower than 0.05 units at a maximum assay concentration of 100 mM),–
"OC(Cn1cncn1)(Cn1cncn1)c1ccc(F)cc1F [Fluconazole, reference compound]",–,–,–,–,–,–,–,4 µg/mL,4 µg/mL,–,–,–
CC1=CC=C(C(C)C)CC1 [α-Terpinene],–,–,–,–,N/D (Activity lower than 0.05 units at a maximum assay concentration of 100 mM),1.9 ± 0.1 µmol AAE/mmol X,4.0 ± 0.2 µmol TE/mmol X,–,–,62.2 ± 4.7 µmol EDTAE/mmol X,0.3 ± 0.0 µmol TE/mmol X,–
C=C(C)[C@H]1CC=C(C)CC1 [Limonene],–,–,–,–,128.0 ± 10.8 µmol TE/mmol X,N/D (Activity lower than 0.05 units at a maximum assay concentration of 100 mM),0.6 ± 0.0 µmol TE/mmol X,–,–,5.9 ± 0.4 µmol EDTAE/mmol X,N/D (Activity lower than 0.05 units at a maximum assay concentration of 100 mM),IC50LOX (LOX): 116.1 ± 3.3 µg/mL; MBC [1]: 2000 µg/mL; MIC ([1]; 24 h): 2000 µg/mL; MBC [2]: 300 µg/mL; MIC ([2]; 24 h): 300 µg/mL; MFC [5]: 1000 µg/mL; MIC ([5]; 48 h): 1000 µg/mL
CC1(C)C2CCC1(C)C(O)C2 (stereo not shown) [Borneol],1100 µg/mL,1100 µg/mL,300 µg/mL,300 µg/mL,N/D (Activity lower than 0.05 units at a maximum assay concentration of 100 mM),N/D (Activity lower than 0.05 units at a maximum assay concentration of 100 mM),N/D (Activity lower than 0.05 units at a maximum assay concentration of 100 mM),600 µg/mL,600 µg/mL,N/D (Activity lower than 0.05 units at a maximum assay concentration of 100 mM),N/D (Activity lower than 0.05 units at a maximum assay concentration of 100 mM),–
CC12CCC(CC1=O)C2(C)C (stereo not shown) [Camphor],> 2300 µg/mL,> 2300 µg/mL,> 2300 µg/mL,> 2300 µg/mL,N/D (Activity lower than 0.05 units at a maximum assay concentration of 100 mM),N/D (Activity lower than 0.05 units at a maximum assay concentration of 100 mM),N/D (Activity lower than 0.05 units at a maximum assay concentration of 100 mM),> 2300 µg/mL,> 2300 µg/mL,N/D (Activity lower than 0.05 units at a maximum assay concentration of 100 mM),N/D (Activity lower than 0.05 units at a maximum assay concentration of 100 mM),IC50 (LOX): 2.74 mM; ORAC ([3]; listed as camphor): did not show any ORAC antioxidant activity
C=C1CCC2(C(C)C)CC12 (stereo not shown) [Sabinene],> 2000 µg/mL,> 2000 µg/mL,> 2000 µg/mL,> 2000 µg/mL,–,–,–,> 2000 µg/mL,> 2000 µg/mL,–,–,–
"C=C1CC/C=C(\C)CC[C@@H]2[C@@H]1CC2(C)C [β-Caryophyllene, (E)-β-Caryophyllene]",> 3100 µg/mL,> 3100 µg/mL,> 3100 µg/mL,> 3100 µg/mL,394.7 ± 14.5 µmol TE/mmol X,N/D (Activity lower than 0.05 units at a maximum assay concentration of 100 mM),N/D (Activity lower than 0.05 units at a maximum assay concentration of 100 mM),> 3100 µg/mL,> 3100 µg/mL,7.1 ± 0.5 µmol EDTAE/mmol X,N/D (Activity lower than 0.05 units at a maximum assay concentration of 100 mM),–
CC1=CCC(C(C)C)=CC1 [γ-Terpinene],–,–,–,–,171.4 ± 10.3 µmol TE/mmol X,0.3 ± 0.0 µmol AAE/mmol X,2.5 ± 0.1 µmol TE/mmol X,–,–,0.3 ± 0.0 µmol EDTAE/mmol X,0.3 ± 0.0 µmol TE/mmol X,–
"[H]/N=C(/N)N[C@H]1[C@H](O)[C@@H](O)[C@H](O[C@@H]2O[C@@H](C)[C@](O)(C=O)[C@H]2O[C@@H]2O[C@@H](CO)[C@H](O)[C@@H](O)[C@@H]2NC)[C@@H](N/C(N)=N\[H])[C@@H]1O [Streptomycin sulfate, reference compound]",1 µg/mL,1 µg/mL,1 µg/mL,1 µg/mL,–,–,–,–,–,–,–,–
C=C1CCC2CC1C2(C)C (stereo not drawn) [β-Pinene],> 2000 µg/mL,> 2000 µg/mL,> 2000 µg/mL,> 2000 µg/mL,26.6 ± 1.6 µmol TE/mmol X,N/D (Activity lower than 0.05 units at a maximum assay concentration of 100 mM),0.1 ± 0.0 µmol TE/mmol X,> 2000 µg/mL,> 2000 µg/mL,1.8 ± 0.1 µmol EDTAE/mmol X,N/D (Activity lower than 0.05 units at a maximum assay concentration of 100 mM),–
C=CC(C)(CCC=C(C)C)OC(C)=O (stereo not shown) [Linalyl acetate],–,–,–,–,207.1 ± 13.2 µmol TE/mmol X,N/D (Activity lower than 0.05 units at a maximum assay concentration of 100 mM),0.1 ± 0.0 µmol TE/mmol X,–,–,27.4 ± 2.1 µmol EDTAE/mmol X,N/D (Activity lower than 0.05 units at a maximum assay concentration of 100 mM),"MBC ([1]; ATCC8739): > 3000 µg/mL; MIC ([1]; ATCC8739, 24 h): > 3000 µg/mL; MBC ([2]; ATCC6538): > 3000 µg/mL; MIC ([2]; ATCC6538, 24 h): 3000 µg/mL; MFC ([5]; ATCC10231): > 3000 µg/mL; MIC ([5]; ATCC10231, 48 h): > 3000 µg/mL"
C=CC(=C)CCC=C(C)C [Myrcene],> 2100 µg/mL,> 2100 µg/mL,> 2100 µg/mL,> 2100 µg/mL,N/D (Activity lower than 0.05 units at a maximum assay concentration of 100 mM),N/D (Activity lower than 0.05 units at a maximum assay concentration of 100 mM),N/D (Activity lower than 0.05 units at a maximum assay concentration of 100 mM),> 2100 µg/mL,> 2100 µg/mL,2.5 ± 0.2 µmol EDTAE/mmol X,N/D (Activity lower than 0.05 units at a maximum assay concentration of 100 mM),–
C/C1=C\CC/C(C)=C/CC(C)(C)/C=C/C1 [α-Humulene],–,–,–,–,–,–,–,–,–,–,–,MBC [1]: >3000 µg/mL; MIC ([1]; 24 h): >3000 µg/mL; MBC [2]: 3000 µg/mL; MIC ([2]; 24 h): 1600 µg/mL; MFC [5]: >3000 µg/mL; MIC ([5]; 48 h): >3000 µg/mL
